pEC50: −log10 of the molar value.

For this experiment, the system named is HBV viral production from HepAD38 cells. As to the kind of experiment: Activity of test compounds on viral production from HepAD38 cells (viral load by qPCR of HBV core sequence in supernatant). The format is cell-based. The conditions noted are these: Hepatitis B virus, 120 h, 5 days incubation, HBV DNA in supernatant by qPCR, top concentration 10 μM, read-out: Viral Load EC50 Activity range. An outline of the steps:
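HepAD38 cells, 50,000/well in tetracycline-free 2% FBS medium, treated 5 days at 37° C. with compound from 10 μM top concentration. HBV DNA in supernatant quantified by TaqMan qPCR of core sequence against DNA standards, relative to DMSO wells; CellTiter-Glo viability read in parallel. EC50/CC50 from four-parameter logistic fit.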

Broadly, the pEC50 is the negative decadic logarithm of the EC50, by convention in mol/L. Regarding `[2H]C([2H])([2H])N1[C@H](C(=O)Nc2ccc(F)c(Cl)c2)C[C@H](c2ncc(-c3cn(C([2H])([2H])[2H])cn3)s2)NS1(=O)=O` [HBV-CSU-337-ISO-I, Cis-N-(3-Chloro-4-fluorophenyl)-2-(methyl-d3)-5-(5-(1-(methyl-d3)-1H-imidazol-4-yl)thiazol-2-yl)-1,2,6-thiadiazinane-3-carboxamide 1,1-dioxide], the pEC50 was > 6.00.

For the molecule `N#CCN1C(C(=O)Nc2ccc(F)c(Cl)c2)CC(c2nccs2)NS1(=O)=O` (racemic) [HBV-CSU-093, Cis-N-(3-Chloro-4-fluorophenyl)-2-(cyanomethyl)-5-(thiazol-2-yl)-1,2,6-thiadiazinane-3-carboxamide 1,1-dioxide], the pEC50 is < 5.30. As to `CN1[C@H](C(=O)Nc2cc(F)c(F)c(Br)c2)C[C@H](c2cccs2)NS1(=O)=O` [HBV-CSU-049-ISO-I, Cis-N-(3-Bromo-4,5-difluorophenyl)-2-methyl-5-(thiophen-2-yl)-1,2,6-thiadiazinane-3-carboxamide 1,1-dioxide], the pEC50 was > 6.00. Consider `CN1[C@H](C(=O)Nc2ccc(F)c(Br)c2)C[C@H](c2ncc(-c3cn(C)cn3)s2)NS1(=O)=O` [HBV-CSU-369, (3S,5R)—N-(3-bromo-4-fluorophenyl)-2-methyl-5-(5-(1-methyl-1H-imidazol-4-yl)thiazol-2-yl)-1,2,6-thiadiazinane-3-carboxamide 1,1-dioxide], for which the pEC50 was > 6.00.

For the molecule `CN1C(C(=O)Nc2ccc(F)c(Cl)c2)CC(c2cc(-c3nncn3C)cs2)NS1(=O)=O` (racemic) [HBV-CSU-328, Cis-N-(3-chloro-4-fluorophenyl)-2-methyl-5-(4-(4-methyl-4H-1,2,4-triazol-3-yl)thiophen-2-yl)-1,2,6-thiadiazinane-3-carboxamide 1,1-dioxide], the pEC50 is > 6.00. The figure for `COCCN1[C@@H](C(=O)Nc2ccc(F)c(Br)c2)C[C@@H](c2nccs2)NS1(=O)=O` [HBV-CSU-059-ISO-I, Cis-N-(3-bromo-4-fluorophenyl)-2-(2-methoxyethyl)-5-(thiazol-2-yl)-1,2,6-thiadiazinane-3-carboxamide 1,1-dioxide] is < 5.30; for `CN1[C@H](C(=O)Nc2ccc(F)c(Cl)c2)C[C@H](c2ccc(Br)s2)NS1(=O)=O` [HBV-CSU-114-ISO-I, (3S,5R)-5-(5-Bromothiophen-2-yl)-N-(3-chloro-4-fluorophenyl)-2-methyl-1,2,6-thiadiazinane-3-carboxamide 1,1-dioxide] it is > 6.00; for `CN(C)CCN1[C@H](c2cccs2)C[C@H](C(=O)Nc2ccc(F)c(Cl)c2)N(C)S1(=O)=O` [HBV-CSU-043-ISO-II, Cis-N-(3-chloro-4-fluorophenyl)-6-(2-(dimethylamino)ethyl)-2-methyl-5-(thiophen-2-yl)-1,2,6-thiadiazinane-3-carboxamide 1,1-dioxide] it is < 5.30. As for `CN1[C@@H](C(=O)Nc2ccc(F)c(Cl)c2)C[C@@H](c2cc(-c3cnn(C)c3)cs2)NS1(=O)=O` [HBV-CSU-169-ISO-II, Cis-N-(3-chloro-4-fluorophenyl)-2-methyl-5-(4-(1-methyl-1H-pyrazol-4-yl)thiophen-2-yl)-1,2,6-thiadiazinane-3-carboxamide 1,1-dioxide], the pEC50 was 5.30 to 6.00. Take `CN1C(C(=O)Nc2ccc(F)c(Cl)c2)CC(c2cc(-c3ccc(C(F)(F)F)nc3)cs2)NS1(=O)=O` (racemic) [HBV-CSU-166, Cis-N-(3-chloro-4-fluorophenyl)-2-methyl-5-(4-(6-(trifluoromethyl)pyridin-3-yl)thiophen-2-yl)-1,2,6-thiadiazinane-3-carboxamide 1,1-dioxide]: the negative logarithm of the EC50 (pEC50) is > 6.00. The figure for `CN1C(C(=O)Nc2ccc(F)c(Cl)c2)CC(c2cccs2)N(C)S1(=O)=O` (stereo not drawn) [HBV-CSU-023, Cis-N-(3-Chloro-4-fluorophenyl)-2,6-dimethyl-5-(thiophen-2-yl)-1,2,6-thiadiazinane-3-carboxamide 1,1-dioxide] is 5.30 to 6.00.

As for `O=C(Nc1ccc(F)c(Cl)c1)C1CC(c2nccs2)NS(=O)(=O)N1` (stereo not drawn) [HBV-CSU-096, Cis-N-(3-Chloro-4-fluorophenyl)-5-(thiazol-2-yl)-1,2,6-thiadiazinane-3-carboxamide 1,1-dioxide], the pEC50 was 5.30 to 6.00. As to `COCCN1[C@H](c2cccs2)C[C@H](C(=O)Nc2ccc(F)c(Cl)c2)NS1(=O)=O` [HBV-CSU-044-ISO-I, Cis-N-(3-Chloro-4-fluorophenyl)-6-(2-methoxyethyl)-5-(thiophen-2-yl)-1,2,6-thiadiazinane-3-carboxamide 1,1-dioxide], the negative-log EC50 (pEC50) is < 5.30. On to `O=C(Nc1ccc(F)c(Cl)c1)[C@@H]1C[C@H](c2nccs2)NS(=O)(=O)N1CCCO` [HBV-CSU-078-ISO-I, Cis-N-(3-Chloro-4-fluorophenyl)-2-(3-hydroxypropyl)-5-(thiazol-2-yl)-1,2,6-thiadiazinane-3-carboxamide 1,1-dioxide], for which the pEC50 was > 6.00. Take `C=CCN1C(C(=O)Nc2ccc(F)c(Cl)c2)CC(c2cccs2)NS1(=O)=O` (stereo not drawn) [HBV-CSU-040, Cis-2-Allyl-N-(3-chloro-4-fluorophenyl)-5-(thiophen-2-yl)-1,2,6-thiadiazinane-3-carboxamide 1,1-dioxide]: the negative-log EC50 (pEC50) is > 6.00. Consider `COCCN1C(C(=O)Nc2ccc(F)c(Cl)c2)CC(c2cccs2)NS1(=O)=O` (racemic) [HBV-CSU-025, Cis-N-(3-chloro-4-fluorophenyl)-2-(2-methoxyethyl)-5-(thiophen-2-yl)-1,2,6-thiadiazinane-3-carboxamide 1,1-dioxide], for which the negative logarithm of the EC50 (pEC50) was > 6.00. Turning to `CN1[C@H](C(=O)Nc2ccc(F)c(Cl)c2)C[C@H](c2ccc(-c3cncnc3)s2)NS1(=O)=O` [HBV-CSU-272-ISO-I, Cis-N-(3-chloro-4-fluorophenyl)-2-methyl-5-(5-(pyrimidin-5-yl)thiophen-2-yl)-1,2,6-thiadiazinane-3-carboxamide 1,1-dioxide], the pEC50 was > 6.00. For `CN1[C@H](C(=O)Nc2ccc(F)c(Cl)c2)C[C@@H](c2ccc(-c3cn(C)cn3)s2)NS1(=O)=O` [HBV-CSU-266-Trans-ISO-II, (3S,5S)-N-(3-chloro-4-fluorophenyl)-2-methyl-5-(5-(1-methyl-1H-imidazol-4-yl)thiophen-2-yl)-1,2,6-thiadiazinane-3-carboxamide 1,1-dioxide], the pEC50 was 5.30 to 6.00. In the case of `CCN(CC)CCCN1[C@@H](C(=O)Nc2ccc(F)c(Cl)c2)C[C@@H](c2nccs2)NS1(=O)=O` [HBV-CSU-101-ISO-I, Cis-N-(3-Chloro-4-fluorophenyl)-2-(3-(diethylamino)propyl)-5-(thiazol-2-yl)-1,2,6-thiadiazinane-3-carboxamide 1,1-dioxide], the negative-log EC50 (pEC50) is < 5.30. With `CN1[C@H](C(=O)Nc2ccc(F)c(Cl)c2)C[C@H](c2cc(-c3ncn(C)n3)cs2)NS1(=O)=O` [HBV-CSU-326-ISO-I, Cis-N-(3-chloro-4-fluorophenyl)-2-methyl-5-(4-(1-methyl-1H-1,2,4-triazol-3-yl)thiophen-2-yl)-1,2,6-thiadiazinane-3-carboxamide 1,1-dioxide], the negative-log EC50 (pEC50) is > 6.00. The figure for `CN1C(C(=O)Nc2ccc(F)c(Cl)c2)CC(c2ccc(-c3cncn3C)s2)NS1(=O)=O` (racemic) [HBV-CSU-267, Cis-N-(3-Chloro-4-fluorophenyl)-2-methyl-5-(5-(1-methyl-1H-imidazol-5-yl)thiophen-2-yl)-1,2,6-thiadiazinane-3-carboxamide 1,1-dioxide] is > 6.00. As for `O=C(Nc1ccc(F)c(Cl)c1)[C@H]1C[C@@H](c2nccs2)NS(=O)(=O)N1CCCN1CCCC1` [HBV-CSU-102-ISO-I, Cis-N-(3-Chloro-4-fluorophenyl)-2-(3-(pyrrolidin-1-yl)propyl)-5-(thiazol-2-yl)-1,2,6-thiadiazinane-3-carboxamide 1,1-dioxide], the pEC50 was < 5.30. With `CN1[C@@H](C(=O)Nc2ccc(F)c(Cl)c2)C[C@@H](c2ccc(OCC(=O)O)cc2)NS1(=O)=O` [HBV-CSU-216-ISO-II, Cis-2-(4-(5-((3-Chloro-4-fluorophenyl)carbamoyl)-6-methyl-1,1-dioxido-1,2,6-thiadiazinan-3-yl)phenoxy)acetic acid], the pEC50 was < 5.30.

On to `CN1[C@@H](C(=O)Nc2ccc(F)c(Cl)c2)C[C@@H](c2cc(-c3cccnc3)cs2)NS1(=O)=O` [HBV-CSU-167-ISO-II, Cis-N-(3-chloro-4-fluorophenyl)-2-methyl-5-(4-(pyridin-3-yl)thiophen-2-yl)-1,2,6-thiadiazinane-3-carboxamide 1,1-dioxide], for which the pEC50 is < 5.30. The same measure for `CN1[C@@H](C(=O)Nc2ccc(F)c(Cl)c2)C[C@@H](c2ccc(C(=O)O)cc2)NS1(=O)=O` [HBV-CSU-218-ISO-II, Cis-4-(5-((3-Chloro-4-fluorophenyl)carbamoyl)-6-methyl-1,1-dioxido-1,2,6-thiadiazinan-3-yl)benzoic acid]: 5.30 to 6.00; for `CN1C(C(=O)Nc2ccc(F)c(Cl)c2)CC(c2ccc(OC(F)F)cc2)NS1(=O)=O` (racemic) [HBV-CSU-263, Cis-N-(3-Chloro-4-fluorophenyl)-5-(4-(difluoromethoxy)phenyl)-2-methyl-1,2,6-thiadiazinane-3-carboxamide 1,1-dioxide]: > 6.00; for `CN1C(C(=O)Nc2ccc(F)c(Cl)c2)CC(c2cc(-c3cncs3)cs2)NS1(=O)=O` (racemic) [HBV-CSU-286, Cis-N-(3-Chloro-4-fluorophenyl)-2-methyl-5-(4-(thiazol-5-yl)thiophen-2-yl)-1,2,6-thiadiazinane-3-carboxamide 1,1-dioxide]: > 6.00.

As to `CN1[C@H](C(=O)Nc2ccc(F)c(Cl)c2)C[C@H](c2ccc(-c3cn[nH]c3)s2)NS1(=O)=O` [HBV-CSU-244-ISO-I], the pEC50 is > 6.00. As for `[2H]C1C([2H])(c2ccc(Br)s2)NS(=O)(=O)N(C([2H])([2H])[2H])C1([2H])C(=O)Nc1ccc(F)c(Cl)c1` (stereo not drawn) [HBV-CSU-372, Cis-5-(5-bromothiophen-2-yl)-N-(3-chloro-4-fluorophenyl)-2-(methyl-d3)-1,2,6-thiadiazinane-3,4,5-d3-3-carboxamide 1,1-dioxide], the pEC50 was > 6.00.

The values are drawn from patent US11078170B2 (Assembly Biosciences, Inc., priority 2017, dated 2021).
